Patent US20220378763A1, “COMPOUND FOR TREATMENT OF ACUTE INFLAMMATION IN THE MYOCARDIUM” (CALPROTECT AB, priority 2019, published 2022)

Experiments:
Format in all cases: in vivo, mouse
[1] = system: C57BL/6 mice with MI induced by permanent coronary artery ligation; test: S100A8/A9 in plasma (ELISA) and myocardium (immunohistochemistry) 3 days post-MI
Protocol: Subsequently the hearts were fixed in 4% (w/v) paraformaldehyde and embedded in paraffin. The hearts were sectioned transversely from the apex to the level of the suture, and 6 μm thick sections were collected at 390 μm intervals. The sections were mounted on glass slides and stained with Van Gieson or Masson trichrome stain for quantitative analysis of scar size. Alarmin S100A8/A9 was detected using mouse anti-S100A8/A9 IgG1 antibody (Abcam, ab 130234, 1:100 dilution, O/N 4° C.). Goat anti-mouse IgG1 HRP-conjugated secondary antibody (Abcam, ab 97240, 1 h RT) was used and the staining was developed with ImmPACT™ DAB (Vector, SK-4105) chromogen as substrate. The slides were subsequently scanned using an Aperio digital pathology slide scanner (Leica Biosystems), and images were captured with the ImageScope software (Leica Biosystems). Left ventricle area and the infarcted area were measured on each section by using the BioPix iQ 2.5.0 software (Biopix AB). The size of the post-MI myocardial scar was expressed as percentage of the left ventricle volume below the coronary ligature.
Plasma levels of S100A8/A9 heterodimer was measured by DuoSet®ELISA (R&D Systems, DY8596-05), according to manufacturer instructions. All the samples were diluted 1:100 prior to analysis. Biotinylated goat anti-mouse S100A8/A9 antibody was used as […] antibody and streptavidin-HRP was used for detection. […]

[2] = system: C57BL/6 mice with coronary artery ligation for 60 minutes followed by reperfusion; test: Myocardial ischemia (60 minutes)/reperfusion, short-term (3 days) treatment: echocardiography and flow cytometry
Protocol: (a) C57BL/6 mice with MI induced by coronary artery ligation for 60 minutes followed by reperfusion received three daily i.p. injections of ABR or PBS, starting at the time of reperfusion and administered on days 0, 1 and 2 post-MI. Cardiac function was assessed by echocardiography the day before surgery and on days 3, 7, 14 and 21 in the Sham (n=10), Sham+ABR (n=10), MI (n=22) and MI+3d ABR (n=13) groups. […] (F) Neutrophil and (G) monocyte counts in the bone marrow were increased 2 days after myocardial ischaemia/reperfusion in the MI+3d ABR group (n=6) compared to the MI group treated with PBS (n=6). (H) Neutrophil, (I) monocyte, and (J) macrophage numbers in the myocardium in the MI and MI+3d ABR groups on Day 2 post-MI. […] The P-values refer to the difference between the MI and the MI+3d ABR groups. The P-values for the repeated measurement experiments refer to the difference between the MI and the MI+3d ABR groups, analysed by 2-way ANOVA with Fisher LSD post-hoc evaluation. Only the significant P-values are shown. Data is presented as mean±SD.
Ultrasound measurements were performed at day −1 (baseline), 7, and 21 to assess cardiac function using a Vevo 770 echocardiographic imaging system with a 707B probe (VisualSonics, Toronto, Canada). In selected experiments, additional assessment was performed on days 3 and 14. The mice were anesthetized using 1-3% isoflurane and hair was carefully removed using depilatory cream. To maintain body temperature, the mice were placed in supine position on a heated surface (37° C.). Two-dimensional M-mode images were recorded in the parasternal short-axis view at the mid-papillary level. Five complete cardiac cycles were traced to calculate fractional shortening, ejection fraction, left ventricular systolic volume, and left ventricular diastolic volume by using the VisualSonics software.
Procedures were carried out as outlined in Example 2. In contrast to permanent ischemia, the coronary artery occlusion was maintained for 60 minutes followed by removal of the ligature, allowing for reperfusion of the ischemic myocardium. Three doses of 30 mg/Kg ABR-238901 diluted in PBS were administered by daily i.p. injections at the time of the reperfusion, and after 24 h and 48 h (FIG. 5A).

[3] = system: C57BL/6 mice with sepsis induced by bacterial lipopolysaccharide; test: LPS-induced sepsis: echocardiography; details: 30 mg/kg i.p. at 0 and 6 h after LPS
Protocol: Female C57BL/6NRJ mice, 10 weeks of age, were purchased from Janvier Labs and housed under 12 h:12 h light:dark cycles with access to food and water ad libitum. The mice were randomly assigned to the two treatment groups, n=5 mice per group. Sepsis was induced by intraperitoneal (i.p.) injection of 5 mg/kg bacterial lipopolysaccharide (Sigma-Aldrich) in all animals. Immediately thereafter and 6 h later, the mice received treatment with 30 mg/kg ABR-238901 or an equivalent volume of PBS administered i.p. The mice were monitored daily to ensure their well-being. All mouse studies were approved by the Animal Research Ethics Committee of Lund University.
Transthoracic echocardiography was performed at baseline before induction of sepsis, and at 6 h, 12 h and 24 h using the Vevo 3100 platform (VisualSonics) equipped with a MX550D imaging transducer. Anesthesia was induced with 2% Isoflurane (AbbVie) and maintained with 1.25% Isoflurane throughout imaging. Hair was removed using depilatory cream before the application of pre-warmed ultrasound gel. Parasternal long axis recordings were performed in the plane containing the aortic valves and a maximal apex view. Analysis was carried out using the VevoLab software (Visual Sonics). Briefly, the perimeter and long axis of the left ventricle were traced at the end of diastole and at the end of systole and used to calculate left ventricular end-systolic and end-diastolic volumes. Left ventricular stroke volume was calculated as the difference between the left ventricular end-diastolic and end-systolic volumes. Left ventricular ejection fraction was calculated as percentage stroke volume out of the end-diastolic volume. Cardiac output was calculated by multiplying the stroke volume with the heart rate at the time of the examination.

[4] = system: C57BL/6 mice with sepsis induced by bacterial lipopolysaccharide; test: LPS-induced sepsis: mortality over 7 days; details: 30 mg/kg i.p. at 0 and 6 h after LPS; 7-day period
Protocol: General animal care, induction of sepsis and treatments were performed as described under Example 7. We initially included a total of 10 mice per treatment group, pooled from two independent experiments. To assess mortality after induction of sepsis, the mice were monitored at least three times a day for 7 days. […] The final group size was n=9 mice in the ABR-238901-treated group, and n=10 in the PBS-treated group. The experimental layout is outlined in FIG. 14A. Mice showing clinical signs of terminal illness that fulfilled the pre-specified termination points specified in the ethical permit awarded by the Lund University Ethics Committee were euthanized. Weight loss more than 20% is not considered a clinical sign of terminal illness, but was defined by the Ethical Committee as an experiment termination criterion.

[5] = 2 days after ischemia/reperfusion

COc1ncc(S(=O)(=O)Nc2cncc(Cl)c2O)cc1Br [ABR-238901, 5-bromo-N-(5-chloro-4-hydroxypyridin-3-yl)-6-methoxypyridine-3-sulfonamide]
Plasma levels of S100A8/A9 ([1]; ELISA): reduced | S100A8/A9 presence in the infarcted myocardium ([1]; immunohistochemical staining): reduced | Left ventricular EF ([2]; 30 mg/Kg i.p. at reperfusion, 24 h, 48 h, echocardiography, day 3): 42% | Left ventricular EF, average ([2]; 30 mg/Kg i.p. at reperfusion, 24 h, 48 h, echocardiography, day 7): 45% | Left ventricular EF ([2]; 30 mg/Kg i.p. at reperfusion, 24 h, 48 h, echocardiography, day 21): 48% | Numbers of monocytes in the bone marrow [2, 5]: increased | Numbers of neutrophils in the bone marrow [2, 5]: increased | Average EDV vs MI control ([2]; 3 days treatment): no significant differences | Average ESV vs MI control ([2]; 3 days treatment): no significant differences | Cardiac output, average ([2]; 3 days treatment, day 21): 15.7 mL/min | Macrophage infiltration in the myocardium ([2]; day 2 after ischemia/reperfusion): decreased | Left ventricular ejection fraction (LVEF) ([3]; 12 h): 44.7% | Cardiac output ([3]; 24 h): 9.17 mL/min | Left ventricular ejection fraction (LVEF) ([3]; 24 h): 54.74% | Animal survival [4]: 100%
